The values below are quoted from earlier work in article PMC12114619, “Nifuroxazide and 4-Hydroxybenzhydrazone Derivatives as New Antiparasitic (Trypanosoma cruzi and Leishmania mexicana) and Anti-Mycobacterium tuberculosis Agents” (Pharmaceutics, 2025).

The IC50 is the concentration that gives 50% inhibition.

Data set [1] relates to amastigotes of the L. major IR-173 strain. Also on record: method as in PMID 35732232. The conditions noted are these: read-out: IC50 against amastigotes of L. major IR-173; cited from earlier work.
Data set [2] deals with intracellular amastigotes of the L. donovani 9515 strain. Further details: method as in PMID 35732232. Particulars: read-out: IC50 against intracellular amastigotes of L. donovani 9515; cited from earlier work.

Regarding `CC(C)(C)c1ccc(COc2ccc(C(=O)N/N=C/c3ccc([N+](=O)[O-])o3)cc2)cc1` [Compound 2d], in data set [1], the IC50 was 190 nM. On to `O=C(N/N=C/c1ccc([N+](=O)[O-])o1)c1ccc(OS(=O)(=O)c2cccnc2)cc1` [Compound 1l], for which the IC50 is 3260 nM in data set [2] and 1260 nM in data set [1].
